Earlier results on four compounds are cited in US20170172145A1, “COMPOSITIONS COMPRISING AN AMIDE” (The Procter & Gamble Company, priority 2015, published 2017).

Turning to `O=C(O)/C=C/c1ccc(O)cc1` [p-coumaric acid], the pKa (usually the pH at which an ionisable group is half protonated) is recorded as 4.6. For the compound `OCl` [hypochlorous acid], the pKa is reported as 7.0.

For the compound `CCCCCCCCC(=O)O` [nonanoic acid], the pKa is recorded as 5.2.

On to `CCCCCCC(=O)O` [heptanoic acid], for which the pKa is 5.1.
